pKd, pKi: −log10 of the molar value. Like-named read-outs stand apart in the source and are kept apart here. Blank lines part the entries; values can stand above or below the compound they belong to.
Assays:
[1] = human plasma, cited from earlier work
sodium channels = details: averaged literature data, cited from earlier work; for pKi: read-out: Ki−Lit; for pKd: read-out: Kr−Lit
[2] = target: T1, rNav1.2 sodium channels (HEK-293 cells) (Rattus norvegicus, UniProt P04775); test: steady-state inactivation protocol (availability curves), QPatch automated patch-clamp; type: cell-based
Excerpt: (§1) A)–D) Peak amplitudes of evoked currents (5 Hz trains of 5 depolarizations from −90 to −10 mV) are plotted against time. Black dots: Control. Grey dots: Drug perfusion. […] Calculation of properties of inhibition is illustrated. […] E) Calculation of Kr and Ki values from steady-state availability curves.
Standard steady-state inactivation protocols were used to measure the shift of steady-state availability curve caused by the drugs. Currents were evoked by a 10 ms test pulse to −10 mV, preceded by 400 ms pre-pulses from −150 to −30 mV. […] Because the inhibition at hyperpolarized potentials (Inh−150), and the shift of the availability curves (ΔV1/2) are both concentration-dependent properties, we calculated affinities to hyperpolarized and depolarized states (“resting state affinity”: Kr, and “inactivated state affinity”: Ki), which, on the other hand, are concentration-independent characteristics of individual drugs. Calculation of Kr and Ki values are described in Materials and Methods, and illustrated in Figure 1E. State-dependence (SD) was quantified as the ratio Kr/Ki.
(§2) HEK-293 cells stably expressing rNav1.2 sodium channels were obtained from NeuroSearch (Ballerup, Denmark).
(§3) Cells were automatically prepared for application to the chips (centrifuged and washed twice, then resuspended in extracellular solution) as described previously. Composition of the extracellular solution was: (in mM): 140 NaCl, 3 KCl, 1 CaCl2, 1 MgCl2, 0.1 CdCl2, 20 TEA-Cl, 5 HEPES, adjusted to pH 7.3, Osmolality: ∼320 mOsm.
(§4) All electrophysiological experiments were conducted on Qpatch-16 or QPatch HT instruments using QPlate™ chips. For a detailed description of the instrument and the patch-clamp chips see [37], [38]. Data were sampled at a frequency of 25 kHz and filtered at 5 kHz. […] The amplifier was controlled and the data were collected by the Sophion QPatch client software. For initial data analysis the QPatch software was used. Built-in amplifiers provide an improved method for series resistance compensation. Leak subtraction (based on a standard P/n protocol) was used to subtract the capacitive component of currents.
Inactivated affinity (Ki) values were calculated assuming a simple four-state model of drug binding and channel gating, using two separate methods: (1) from the shift of the availability curve (ΔV1/2), the slope of the Boltzmann fit of the availability curve (k) and Kr, using the formula described by Bean, Cohen and Tsien (Ki−ΔV1/2; see Figure 1E), or (2) from the apparent affinity (Kapp) at a certain pre-pulse potential, which was calculated from the inhibition (e.g. Inh−60) as described above, and the availability (h) at the same pre-pulse potential, using the formula from Kuo and Bean (Figure 1E). […] (Arithmetic means and SEM values are given in Results S7.)

[3] = target: T1, rNav1.2 sodium channels (HEK-293 cells); test: 5 Hz train protocol, QPatch automated patch-clamp; type: cell-based; details: for Rev (reversibility): Rev = A5/A1 after washout; for potency estimated from few doses: −90 mV, read-out: IC50; for potency: in words;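 on UD (use-dependence of the inhibition): UD = (A3/A4)/(A1/A2) as ratios of peak amplitudes from Figure 1A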
Excerpt: The dynamics of the onset and offset of inhibition was monitored using 5 Hz trains of five depolarizing pulses from a holding potential of −90 mV to −10 mV. The trains were repeated every 20 s. Drugs were applied after 10 control trains and 10 trains were delivered in the presence of the drug. The drug was then washed out, and the 10 trains were repeated.
We measured inhibition (Inh; from which we calculated IC50 values as described in Materials and Methods), reversibility of inhibition (Rev) and use-dependence (UD), as well as time constant of onset (τon) and offset (τoff). The calculation of IC50, quantification of Rev and UD, and the determination of time constants are illustrated in Figure 1A. Because τon should be concentration-dependent if we assume a single binding reaction, we excluded it from the analyses. […] Comments on the interpretation of these properties (Rev, […] and UD) are in Results S1.
as §1, §2, §3, §4
From this protocol we extracted five parameters, as illustrated in Figure 1A. We calculated inhibition of a single “cc” concentration: Inh = (amplitudectr – amplitudedrug)/amplitudectr.

[4] = 30 μM, 500 s assigned where irreversible
[5] = HEK293, 30 μM, −90 mV holding potential, 5 Hz train, read-out: Inh (inhibited fraction)
[6] = HEK293, calculated from Inh at single concentration 30 μM, 5 Hz train
[7] = HEK293, 300 µM, read-out: Inh (inhibited fraction) at holding potential −150 mV
[8] = arithmetic mean, 300 µM, read-out: Ki-Kapp arith
[9] = arithmetic mean, 300 µM, read-out: Ki-ΔV1/2 arith
[10] = arithmetic mean, 300 µM, read-out: Kr arith
[11] = geometric mean, from Inh at −150 mV, 300 µM, read-out: Kr (resting state affinity)
[12] = geometric mean, from apparent affinity, 300 µM, read-out: Ki−Kapp (inactivated state affinity)
[13] = geometric mean, from shift of availability curve, 300 µM, read-out: Ki−ΔV1/2 (inactivated state affinity)
[14] = arithmetic mean, 100 µM, read-out: Ki-Kapp arith
[15] = arithmetic mean, 100 µM, read-out: Ki-ΔV1/2 arith
[16] = arithmetic mean, 100 µM, read-out: Kr arith
[17] = geometric mean, from Inh at −150 mV, 100 µM, read-out: Kr (resting state affinity)
[18] = geometric mean, from apparent affinity, 100 µM, read-out: Ki−Kapp (inactivated state affinity)
[19] = geometric mean, from shift of availability curve, 100 µM, read-out: Ki−ΔV1/2 (inactivated state affinity)
[20] = 100 μM, 500 s assigned where irreversible
[21] = HEK293, 30 µM, read-out: Inh (inhibited fraction) at holding potential −150 mV

T1 sequence (P04775 whole entry, the tested form may be a part): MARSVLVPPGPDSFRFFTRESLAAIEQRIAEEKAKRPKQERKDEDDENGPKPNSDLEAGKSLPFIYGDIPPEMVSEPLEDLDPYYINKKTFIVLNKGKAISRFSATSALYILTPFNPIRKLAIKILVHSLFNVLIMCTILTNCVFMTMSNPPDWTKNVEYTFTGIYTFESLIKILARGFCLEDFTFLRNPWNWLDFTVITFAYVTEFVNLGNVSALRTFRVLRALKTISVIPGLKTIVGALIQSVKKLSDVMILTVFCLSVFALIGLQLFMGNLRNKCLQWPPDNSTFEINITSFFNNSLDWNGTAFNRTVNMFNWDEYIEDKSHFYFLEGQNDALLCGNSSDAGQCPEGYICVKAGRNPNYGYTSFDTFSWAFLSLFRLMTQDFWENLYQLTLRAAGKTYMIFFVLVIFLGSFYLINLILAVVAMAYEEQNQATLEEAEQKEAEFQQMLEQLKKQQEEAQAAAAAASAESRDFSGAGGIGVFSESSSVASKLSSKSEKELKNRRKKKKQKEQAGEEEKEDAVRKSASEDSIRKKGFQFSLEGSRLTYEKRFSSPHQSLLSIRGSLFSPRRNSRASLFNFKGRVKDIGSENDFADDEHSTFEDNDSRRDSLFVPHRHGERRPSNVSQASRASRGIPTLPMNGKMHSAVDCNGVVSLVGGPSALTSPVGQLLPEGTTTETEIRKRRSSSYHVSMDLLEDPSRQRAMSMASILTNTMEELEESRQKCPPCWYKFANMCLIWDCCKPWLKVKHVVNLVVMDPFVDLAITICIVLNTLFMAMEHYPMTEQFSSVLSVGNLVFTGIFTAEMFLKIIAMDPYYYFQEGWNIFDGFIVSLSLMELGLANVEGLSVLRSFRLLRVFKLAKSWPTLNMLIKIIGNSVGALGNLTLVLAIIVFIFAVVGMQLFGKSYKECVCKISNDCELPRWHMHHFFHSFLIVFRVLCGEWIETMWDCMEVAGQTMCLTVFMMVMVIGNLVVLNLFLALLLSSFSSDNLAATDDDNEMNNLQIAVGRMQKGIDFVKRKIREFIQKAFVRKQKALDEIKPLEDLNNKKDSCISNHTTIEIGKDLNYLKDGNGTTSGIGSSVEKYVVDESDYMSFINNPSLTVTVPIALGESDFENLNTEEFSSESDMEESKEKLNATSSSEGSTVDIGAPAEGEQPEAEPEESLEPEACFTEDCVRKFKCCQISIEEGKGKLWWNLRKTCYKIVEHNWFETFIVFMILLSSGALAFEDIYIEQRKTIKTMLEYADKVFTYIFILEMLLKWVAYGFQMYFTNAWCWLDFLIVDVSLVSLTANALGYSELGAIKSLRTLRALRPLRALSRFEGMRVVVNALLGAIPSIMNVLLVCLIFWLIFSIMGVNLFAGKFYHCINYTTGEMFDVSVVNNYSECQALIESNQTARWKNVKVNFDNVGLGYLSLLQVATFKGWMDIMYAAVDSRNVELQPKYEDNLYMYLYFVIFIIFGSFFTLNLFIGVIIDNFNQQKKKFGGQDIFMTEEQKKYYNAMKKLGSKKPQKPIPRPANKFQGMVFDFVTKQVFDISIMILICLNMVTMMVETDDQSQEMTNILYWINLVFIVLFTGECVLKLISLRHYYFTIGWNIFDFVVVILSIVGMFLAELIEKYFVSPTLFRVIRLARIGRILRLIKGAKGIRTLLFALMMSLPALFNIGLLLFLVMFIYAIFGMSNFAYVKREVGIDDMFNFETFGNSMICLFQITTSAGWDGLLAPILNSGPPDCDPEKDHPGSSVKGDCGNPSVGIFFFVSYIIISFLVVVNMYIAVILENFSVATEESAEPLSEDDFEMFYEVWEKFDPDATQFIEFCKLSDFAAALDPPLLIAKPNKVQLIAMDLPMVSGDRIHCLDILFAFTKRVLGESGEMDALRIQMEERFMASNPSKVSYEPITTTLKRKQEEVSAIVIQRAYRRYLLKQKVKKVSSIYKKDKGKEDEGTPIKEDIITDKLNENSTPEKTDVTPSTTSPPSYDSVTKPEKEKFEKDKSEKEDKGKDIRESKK

ΔV1/2 (shift of availability curve) ([2]; 1 µM): −4.39 mV
inhibition at 1 µM ([2]; HEK293, 1 µM, read-out: Inh (inhibited fraction) at holding potential −150 mV): 2%
pKi ([2]; arithmetic mean, 1 µM, read-out: Ki-Kapp arith): 6.28
pKi ([2]; arithmetic mean, 1 µM, read-out: Ki-ΔV1/2 arith): 6.02
pKd ([2]; arithmetic mean, 1 µM, read-out: Kr arith): 4.20
pKd ([2]; geometric mean, from Inh at −150 mV, 1 µM, read-out: Kr (resting state affinity)): 4.25
pKi ([2]; geometric mean, from apparent affinity, 1 µM, read-out: Ki−Kapp (inactivated state affinity)): 6.30
pKi ([2]; geometric mean, from shift of availability curve, 1 µM, read-out: Ki−ΔV1/2 (inactivated state affinity)): 6.04
onset and offset kinetics (time constants) [3]: very slow kinetics
τon ([3]; 30 μM): 96.5 s
UD (use-dependence of the inhibition) ([3]; 30 μM, 5 Hz train): 1.02
τoff [3, 4]: 500 s
Rev (reversibility) ([3]; 30 μM): 0.01
use-dependence (UD) ([3]; 5 Hz train): no use-dependence
reversibility ([3]; 200 s of washout): apparent irreversibility
inhibition at 30 µM [3, 5]: 78%
potency estimated from few doses [3, 6]: 5.29 µM
potency [3]: high potency
SMILES: Cc1ccc(-c2nc(C)c(CN3CCN(C(c4ccccc4)c4ccccc4)CC3)[nH]2)cc1 [LIF, Lifarizine]
plasma conc. ([1]; as printed in each cell): 0.02 [59] µg/ml
plasma conc. ([1]; as printed in the µg/ml cell): 0.046 µM
pKi (sodium channels): 6.72
pKd (sodium channels): 4.99

ΔV1/2 (shift of availability curve) ([2]; 10 µM): −11.3 mV
ΔV1/2 (shift of availability curve) ([2]; 30 μM): −11.2 mV
ΔV1/2 (shift of availability curve) ([2]; 100 μM): −18 mV
inhibition at 10 µM ([2]; HEK293, 10 µM, read-out: Inh (inhibited fraction) at holding potential −150 mV): 8%
inhibition at 30 µM [2, 21]: 20%
inhibition at 100 µM ([2]; HEK293, 100 µM, read-out: Inh (inhibited fraction) at holding potential −150 mV): 59%
pKi ([2]; arithmetic mean, 10 µM, read-out: Ki-Kapp arith): 5.29
pKi ([2]; arithmetic mean, 10 µM, read-out: Ki-ΔV1/2 arith): 5.71
pKd ([2]; arithmetic mean, 10 µM, read-out: Kr arith): 3.81
pKi ([2]; arithmetic mean, 30 µM, read-out: Ki-Kapp arith): 5.29
pKi ([2]; arithmetic mean, 30 µM, read-out: Ki-ΔV1/2 arith): 5.42
pKd ([2]; arithmetic mean, 30 µM, read-out: Kr arith): 3.89
pKi [2, 14]: 5.68
pKi [2, 15]: 5.73
pKd [2, 16]: 4.14
pKd ([2]; geometric mean, from Inh at −150 mV, 10 µM, read-out: Kr (resting state affinity)): 3.87
pKd ([2]; geometric mean, from Inh at −150 mV, 30 µM, read-out: Kr (resting state affinity)): 3.90
pKd [2, 17]: 4.16
pKi ([2]; geometric mean, from apparent affinity, 10 µM, read-out: Ki−Kapp (inactivated state affinity)): 5.48
pKi ([2]; geometric mean, from apparent affinity, 30 µM, read-out: Ki−Kapp (inactivated state affinity)): 5.31
pKi [2, 18]: 5.70
pKi ([2]; geometric mean, from shift of availability curve, 10 µM, read-out: Ki−ΔV1/2 (inactivated state affinity)): 5.84
pKi ([2]; geometric mean, from shift of availability curve, 30 µM, read-out: Ki−ΔV1/2 (inactivated state affinity)): 5.43
pKi [2, 19]: 5.78
τon ([3]; 30 μM): 10.54 s
UD (use-dependence of the inhibition) ([3]; 30 μM, 5 Hz train): 1.66
τoff [3, 4]: 16.95 s
Rev (reversibility) ([3]; 30 μM): 0.50
inhibition at 30 µM [3, 5]: 56%
potency estimated from few doses [3, 6]: 23.5 µM
SMILES: CN(C)CCC=C1c2ccccc2CCc2ccccc21 [AMI, Amitriptyline]
plasma conc. ([1]; as printed in each cell): 0.064 [44] µg/ml
plasma conc. ([1]; as printed in the µg/ml cell): 0.204 µM
pKi (sodium channels): 6.28
pKd (sodium channels): 4.42

ΔV1/2 (shift of availability curve) ([2]; 300 μM): −5.52 mV
inhibition at 300 µM [2, 7]: 42%
pKi [2, 8]: 4.71
pKi [2, 9]: 4.11
pKd [2, 10]: 3.23
pKd [2, 11]: 3.36
pKi [2, 12]: 4.97
pKi [2, 13]: 4.18
τon ([3]; 100 μM): 8.13 s
UD (use-dependence of the inhibition) ([3]; 100 μM, 5 Hz train): 1.21
τoff [3, 20]: 13.24 s
Rev (reversibility) ([3]; 100 μM): 0.89
inhibition at 100 µM ([3]; HEK293, 100 μM, −90 mV holding potential, 5 Hz train, read-out: Inh (inhibited fraction)): 16%
potency estimated from few doses ([3]; HEK293, calculated from Inh at single concentration 100 μM, 5 Hz train): 355 µM
(IC50/Ki) / (Kr/Ki) ratio ([3]; from IC50 (5 Hz train) and Kr, Ki (steady-state inactivation)): 0.94
SMILES: COc1ccccc1OCC(O)CN1CCN(CC(=O)Nc2c(C)cccc2C)CC1 (stereo not drawn) [RAN, Ranolazine]
plasma conc. ([1]; as printed in each cell): 3.59 [52] µg/ml
plasma conc. ([1]; as printed in the µg/ml cell): 7.173 µM
pKi (sodium channels): 4.12
pKd (sodium channels): 3.00

Continued, compound first:

SMILES: O=C1NC(=O)C(c2ccccc2)(c2ccccc2)N1 [DPH, 5,5-diphenyl-hydantoin]
plasma conc. ([1]; as printed in each cell): 10 [44] µg/ml
plasma conc. ([1]; as printed in the µg/ml cell): 39.64 µM
pKi (sodium channels): 4.79
pKd (sodium channels): 3.15
ΔV1/2 (shift of availability curve) ([2]; 300 μM): −4.93 mV
inhibition at 300 µM [2, 7]: 12%
pKi [2, 8]: 4.11
pKi [2, 9]: 3.76
pKd [2, 10]: 2.53
pKd [2, 11]: 2.60
pKi [2, 12]: 4.15
pKi [2, 13]: 3.83
τoff ([3]; 300 μM): 15.96 s
τon ([3]; 300 μM, 3 s assigned where too short to be resolved): 5.20 s
UD (use-dependence of the inhibition) ([3]; 300 μM, 5 Hz train): 1.01
Rev (reversibility) ([3]; 300 μM): 0.75
inhibition at 300 µM ([3]; HEK293, 300 μM, −90 mV holding potential, 5 Hz train, read-out: Inh (inhibited fraction)): 18%
potency estimated from few doses ([3]; HEK293, calculated from Inh at single concentration 300 μM, 5 Hz train): 1390 µM
potency [3]: among the least potent SCIs

SMILES: C[Si](C)(Cc1ccc(F)cc1)CN1CCCCC1 [SIL, Silperisone]
plasma conc. ([1]; as printed in each cell): 0.45 [56] µg/ml
plasma conc. ([1]; as printed in the µg/ml cell): 1.484 µM
pKi (sodium channels): 4.46
pKd (sodium channels): 3.47
Inh (inhibited fraction) at holding potential −150 mV ([2]; 100 μM): 0.43
ΔV1/2 (shift of availability curve) ([2]; 100 μM): −7.66 mV
pKi [2, 14]: 5.15
pKi [2, 15]: 4.84
pKd [2, 16]: 3.87
pKd [2, 17]: 3.88
pKi [2, 18]: 5.17
pKi [2, 19]: 4.85
τon ([3]; 100 μM): 4.1 s
UD (use-dependence of the inhibition) ([3]; 100 μM, 5 Hz train): 1.16
τoff [3, 20]: 15.21 s
Rev (reversibility) ([3]; 100 μM): 0.8
Inh (inhibited fraction) ([3]; 100 μM, −90 mV holding potential, 5 Hz train): 0.45
potency estimated from few doses ([3]; calculated from Inh at single concentration 100 μM, 5 Hz train): 121 µM

SMILES: CNCCCN1c2ccccc2CCc2ccccc21 [DMI, Desipramine]
plasma conc. ([1]; as printed in each cell): 0.1 [44] µg/ml
plasma conc. ([1]; as printed in the µg/ml cell): 0.330 µM
pKi (sodium channels): 5.94
pKd (sodium channels): 4.53
inhibition at 30 µM [2, 21]: 35%
τon ([3]; 30 μM): 32.02 s
UD (use-dependence of the inhibition) ([3]; 30 μM, 5 Hz train): 1.32
τoff [3, 4]: 51.82 s
Rev (reversibility) ([3]; 30 μM): 0.43
inhibition at 30 µM [3, 5]: 62%
potency estimated from few doses [3, 6]: 18.3 µM
